According to patent US8492385B2, “Crystalline modifications of N-alpha-(2,4,6-triisopropylphenylsulfonyl)-3-hydroxyamidino- (L)- phenylalanine 4-ethoxycarbonylpiperazide and/or salts thereof” (Wilex AG, priority 2004, dated 2013):

Tests used:
Format in all cases: physicochemical
[1] = Thermomicroscopy of WX-671.1
Description: Thermomicroscopic recordings of a sample of WX-671.1 were made (not shown). Agglomerates were observed which show no specific habit. The active compound decomposes with bubble formation from about 197° C. Differences to the decomposition temperature observed in the DSC calorimeter come about due to the different heating rates. WX-671.1 is obtained in nonspecific form from solvents.

[2] = Polymorphism screening / stability of the solid form (stirring in solvents, mechanical stress)
[3] = DSC and TGA thermograms of WX-671.1 (hydrogensulfate salt)
Description: In this example, thermograms were plotted by differential scanning calorimetry (DSC) and thermo-gravimetry (TGA). […] It decomposes from about 180° C. (exothermic peak in the DSC thermogram, mass loss in the TGA thermogram in the corresponding temperature range). The decomposition temperatures are strongly heating rate-dependent and were determined in the DSC calorimeter at a heating rate of 2 Kmin^−1. The DSC table measurements shown were recorded at a heating rate of […] is correspondingly recorded at higher temperatures.

[4] = Investigation of the hygroscopicity (storage at 85% relative humidity, TGA); conditions: storage for 1 week/85% relative humidity
[5] = Investigation of the crystallinity by X-ray diffractometry; conditions: salts suspended 7 days in a suitable solvent, filtered, dried at room temperature
Description: In a second step, the salts were suspended for 7 days in a suitable solvent, filtered and dried at room temperature.
Processes: X-ray diffractometry (XRD); microscopy

Row | decomposition with bubble formation, temperature [1] | change of form on stirring in water:ethanol (1:1) ([2]; mesophase B) | change of form due to mechanical stress ([2]; mesophase B, grinding in a mortar, compressing at 9 kbar) | change of form on stirring in isopropanol ([2]; mesophase B, room temperature, one week) | decomposition temperature ([3]; mesophase B) | mass loss (TGA) ([3]; mesophase C, up to 175° C.) | mass loss (TGA) ([3]; modification A, at 150° C.) | TGA (hygroscopicity) [4] | TGA, kind of water uptake [4] | XRD (crystallinity) [5] | thermodynamic stability of the form [2] | Compound
1 | about 197 °C | does not change | does not alter | changes into modification A | about 185 °C | 4.5% | no significant mass loss | 0.8% | (adsorptive) | liquid crystalline | – | CCOC(=O)N1CCN(C(=O)[C@H](Cc2cccc(C(N)=NO)c2)NS(=O)(=O)c2c(C(C)C)cc(C(C)C)cc2C(C)C)CC1 [WX-671.1, N-α-(2,4,6-triisopropylphenylsulfonyl)-3-hydroxyamidino-(L)-phenylalanine 4-ethoxycarbonylpiperazide]
2 | – | – | – | – | – | – | – | – | – | – | thermodynamically stable compound | CCOC(=O)N1CCN(C(=O)[C@H](Cc2cccc(C(N)=NO)c2)NS(=O)(=O)c2c(C(C)C)cc(C(C)C)cc2C(C)C)CC1.O=S(=O)(O)O [WX-671.2, N-α-(2,4,6-triisopropylphenyl-sulfonyl)-3-hydroxyamidino-(L)-phenylalanine 4-ethoxy-carbonylpiperazide sulfate]
3 | – | – | – | – | – | – | – | 10.5% | (adsorptive) | completely amorphous | – | Tartrate

Row | Compound | decomposition with bubble formation, temperature [1] | change of form on stirring in water:ethanol (1:1) ([2]; mesophase B) | change of form due to mechanical stress ([2]; mesophase B, grinding in a mortar, compressing at 9 kbar) | change of form on stirring in isopropanol ([2]; mesophase B, room temperature, one week) | decomposition temperature ([3]; mesophase B) | mass loss (TGA) ([3]; mesophase C, up to 175° C.) | mass loss (TGA) ([3]; modification A, at 150° C.) | TGA (hygroscopicity) [4] | TGA, kind of water uptake [4] | XRD (crystallinity) [5] | thermodynamic stability of the form [2]
4 | Hydrochloride | – | – | – | – | – | – | – | 7.5% | (adsorptive) | completely amorphous | –
